In US4738954A, “Novel N^6 -substituted-5'-oxidized adenosine analogs” (Warner-Lambert Company, priority 1985, dated 1988):

Key:
mouse locomotor activity = assay: Mouse Activity and Screen Test Procedure (MAST): locomotor activity; assay type: in vivo, Swiss-Webster male mice; details: mice, one hour
Source text: The compounds of the invention are new chemical substances which are useful as pharmaceutical agents for the treatment of psychoses. The antipsychotic activity of representative compounds of the invention was established by the Mouse Activity and Screen Test Procedure (MAST) described below.
Nine unfasted Swiss-Webster male mice weighing 20-30 g are equally divided into three groups for each drug dose to be tested. That is, data for each dose level was generated by three separate groups of three mice each.
A minimum of three dose levels (10, 30, and 100 mg/kg) are tested for each drug. Treatments are administered intraperitoneally one hour prior to testing. All dosages are calculated as parent compound and given in volumes of 10 ml/kg. Compounds are dissolved or suspended in 0.2% Methocel. Control animals are injected with Methocel.
A two part testing procedure is started one hour postinjection. First, the screen test (ST) is performed (see Pharmac. Biochem. Behav. 6, 351-353, 1977). Briefly this test consists of placing mice on individual wire screens which are then rotated 180 degrees at the start of a 60 second observation period. The number of mice falling off the inverted screen is recorded.
Immediately following the screen test, the final phase of testing is initiated by placing each group of three mice in one actophotometer (Life Sciences, 22, 1067-1076, 1978). The actophotometer consists of a cylindrical chamber whose center is occupied by another cylinder which contains the illumination for six photocells located on the perimeter of the chamber. Six light-beam interruptions equal one count. Locomotor activity is recorded by computer at ten minute intervals for 60 minutes.
The data obtained from the screen test are expressed as percent of mice falling off the screen. Data derived from locomotor activity of drug treated mice are compared to the activity of vehicle treated animals and are expressed as percent inhibition of spontaneous locomotion. All percentages reported for inhibition of locomotion (LI) are based upon data accumulated for one hour. Both phases of testing are graded: A=60-100%; C=31-59%; and N=0-30%. An overall dose rating is obtained by the following criteria:
LAD refers to the lowest dose at which an A rating is achieved. […] Utilizing this procedure, an overall dose rating of A was obtained for the noted compound at the indicated dose. The compounds are identified in the Examples.

[1] = tested on: mice falling off the inverted screen; assay: Mouse Activity and Screen Test Procedure (MAST): screen test; assay type: in vivo, Swiss-Webster male mice
Source text: The compounds of the invention are new chemical substances which are useful as pharmaceutical agents for the treatment of psychoses. The antipsychotic activity of representative compounds of the invention was established by the Mouse Activity and Screen Test Procedure (MAST) described below. Animals Nine unfasted Swiss-Webster male mice weighing 20-30 g are equally divided into three groups for each drug dose to be tested. That is, data for each dose level was generated by three separate groups of three mice each. Drugs A minimum of three dose levels (10, 30, and 100 mg/kg) are tested for each drug. Treatments are administered intraperitoneally one hour prior to testing. All dosages are calculated as parent compound and given in volumes of 10 ml/kg. Compounds are dissolved or suspended in 0.2% Methocel. Control animals are injected with Methocel. Testing: A two part testing procedure is started one hour postinjection. First, the screen test (ST) is performed (see Pharmac. Biochem. Behav. 6, 351-353, 1977). Briefly this test consists of placing mice on individual wire screens which are then rotated 180 degrees at the start of a 60 second observation period. The number of mice falling off the inverted screen is recorded. Data: The data obtained from the screen test are expressed as percent of mice falling off the screen. Data derived from locomotor activity of drug treated mice are compared to the activity of vehicle treated animals and are expressed as percent inhibition of spontaneous locomotion. All percentages reported for inhibition of locomotion (LI) are based upon data accumulated for one hour. Both phases of testing are graded: A=60-100%; C=31-59%; and N=0-30%. An overall dose rating is obtained by the following criteria: LAD refers to the lowest dose at which an A rating is achieved. […] Utilizing this procedure, an overall dose rating of A was obtained for the noted compound at the indicated dose. The compounds are identified in the Examples.

Screen test failure ([1]; 0.1 mg/kg IP) [%] | Screen test failure ([1]; 0.3 mg/kg IP) [%] | Screen test failure ([1]; 1 mg/kg IP) [%] | Screen test failure ([1]; 3 mg/kg IP) [%] | Screen test failure ([1]; 10 mg/kg IP) [%] | Screen test failure ([1]; 30 mg/kg IP) [%] | Screen test failure ([1]; 0.03 mg/kg IP) [%] | Screen test failure ([1]; 0.01 mg/kg IP) [%] | SMILES | Inhibition of mouse locomotor activity (mouse locomotor activity; 0.1 mg/kg IP) [%] | Inhibition of mouse locomotor activity (mouse locomotor activity; 0.3 mg/kg IP) [%] | Inhibition of mouse locomotor activity (mouse locomotor activity; 1 mg/kg IP) [%] | Inhibition of mouse locomotor activity (mouse locomotor activity; 3 mg/kg IP) [%] | Inhibition of mouse locomotor activity (mouse locomotor activity; 10 mg/kg IP) [%] | Inhibition of mouse locomotor activity (mouse locomotor activity; 30 mg/kg IP) [%] | Inhibition of mouse locomotor activity (mouse locomotor activity; 0.03 mg/kg IP) [%] | Inhibition of mouse locomotor activity (mouse locomotor activity; 0.01 mg/kg IP) [%]
0 | 0 | 0 | 0 | 11 | 33 |  |  | CCNC(=O)[C@H]1O[C@@H](n2cnc3c(NCC(c4ccccc4)c4ccccc4)ncnc32)[C@H](O)[C@@H]1O [Example 3, N^6-(2,2-diphenylethyl)-adenosine-5'-ethylcarboxamide] | 20 | 1 | 72 | 92 | 90 | 93 |  | 
0 | 0 | 11 | 11 | 0 |  | 0 |  | CCNC(=O)[C@H]1O[C@@H](n2cnc3c(NCc4cccc5ccccc45)ncnc32)[C@H](O)[C@@H]1O [Example 6, N-6-Naphthylmethyladenosine-5'-ethylcarboxamide] | 30 | 82 | 87 | 88 | 90 |  | 21 | 
 |  |  | 11 | 0 | 0 |  |  | CCOC(=O)[C@H]1O[C@@H](n2cnc3c(NCC(c4ccccc4)c4ccccc4)ncnc32)[C@H](O)[C@@H]1O [Example 5, N6-(2,2-diphenylethyl)-5-adenosine-5'-ethylcarboxylate] |  |  |  | -4 | 0 | 2 |  | 
33 | 11 | 33 | 88 | 100 | 100 | 0 | 0 | CCNC(=O)[C@H]1O[C@@H](n2cnc3c(N[C@H](C)Cc4ccccc4)ncnc32)[C@H](O)[C@@H]1O [Example 1, (R)-N-6-[(2-phenyl-1-methyl)ethyl]-adenosine-5'-ethylcarboxamide] | 91 | 75 | 92 | 99 | 99 | 99 | 18 | -8
